Source: PubChem BioAssay (NCI)
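GI50 = concentration required for 50% inhibition of growth. TGI marks complete inhibition of growth.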

Legend:
Test in all cases: growth of human tumour cells (NCI), 384-well format
[1] = test system: OVCAR-8 ovarian
[2] = test system: NCI-H226 lung
[3] = test system: MDA-MB-231 breast
[4] = test system: DU-145 prostate
[5] = test system: PC-3 prostate
[6] = test system: UACC-62 melanoma
[7] = test system: OVCAR-4 ovarian
[8] = test system: HL-60(TB) leukemia
[9] = test system: HOP-92 NSCLC
[10] = test system: BT-549 breast
[11] = test system: SF-268 CNS
[12] = test system: UO-31 renal
[13] = test system: MOLT-4 leukemia
[14] = test system: NCI/ADR-RES ovarian
[15] = test system: MDA-MB-468 breast
[16] = test system: M14 melanoma
[17] = test system: T-47D breast
[18] = test system: MDA-MB-435 melanoma
[19] = test system: MALME-3M melanoma
[20] = test system: MCF7 breast
[21] = test system: A498 renal
[22] = test system: A549 NSCLC
[23] = test system: SN12C renal
[24] = test system: SK-MEL-5 melanoma
[25] = test system: HCC-2998 colon
[26] = test system: SW-620 colon
[27] = test system: HS 578T breast
[28] = test system: RXF 393 renal
[29] = test system: ACHN renal
[30] = test system: KM12 colon
[31] = test system: SK-OV-3 ovarian
[32] = test system: CCRF-CEM leukemia
[33] = test system: LOX IMVI melanoma
[34] = test system: NCI-H522 lung
[35] = test system: NCI-H322M lung
[36] = test system: EKVX NSCLC
[37] = test system: SNB-75 CNS
[38] = test system: CAKI-1 renal
[39] = test system: UACC-257 melanoma
[40] = test system: TK-10 renal
[41] = test system: SNB-19 CNS
[42] = test system: RPMI-8226 leukemia
[43] = test system: HOP-62 NSCLC
[44] = test system: HCT-116 colon
[45] = test system: COLO 205 colon
[46] = test system: HCT-15 colon
[47] = test system: SF-539 CNS
[48] = test system: U251 glioblastoma
[49] = test system: 786-0 renal
[50] = test system: NCI-H460 NSCLC
[51] = test system: SK-MEL-28 melanoma
[52] = test system: OVCAR-3 ovarian
[53] = test system: K-562 leukemia
[54] = test system: HT29 colon
[55] = test system: SF-295 CNS
[56] = test system: IGROV1 ovarian
[57] = test system: NCI-H23 lung

For `Cc1ccc2c(=O)c3cccc(CC(=O)O)c3oc2c1C`, the GI50 [1] was over 100 µM, the TGI [1] was over 100 µM and the GI50 [2] was over 100 µM. The TGI [2] was over 100 µM, the GI50 [3] was over 100 µM and the TGI [3] was over 100 µM. It also gave a GI50 [4] of over 100 µM, a TGI [4] of over 100 µM and a GI50 [5] of over 100 µM. The TGI [5] was over 100 µM, the GI50 [6] was over 100 µM and the TGI [6] was over 100 µM. The GI50 [7] was over 100 µM, the TGI [7] was over 100 µM and the GI50 [8] was over 100 µM. The TGI [8] was over 100 µM, the GI50 [9] was over 100 µM and the TGI [9] was over 100 µM. It also gave a GI50 [10] of over 100 µM, a TGI [10] of over 100 µM and a GI50 [11] of over 100 µM. For the same molecule, the TGI [11] was over 100 µM, the GI50 [12] was over 100 µM and the TGI [12] was over 100 µM. The GI50 [13] was over 100 µM, the TGI [13] was over 100 µM and the GI50 [14] was over 100 µM. The TGI [14] was over 100 µM, the GI50 [15] was over 100 µM and the TGI [15] was over 100 µM. For the same molecule, the GI50 [16] was over 100 µM, the TGI [16] was over 100 µM and the GI50 [17] was over 100 µM. For the same molecule, the TGI [17] was over 100 µM, the GI50 [18] was over 100 µM and the TGI [18] was over 100 µM. It also gave a GI50 [19] of over 100 µM, a TGI [19] of over 100 µM and a GI50 [20] of over 100 µM. For the same molecule, the TGI [20] was over 100 µM, the GI50 [21] was over 100 µM and the TGI [21] was over 100 µM. The GI50 [22] was over 100 µM, the TGI [22] was over 100 µM and the GI50 [23] was over 100 µM. The TGI [23] was over 100 µM, the GI50 [24] was over 100 µM and the TGI [24] was over 100 µM. It also gave a GI50 [25] of over 100 µM, a TGI [25] of over 100 µM and a GI50 [26] of over 100 µM. For the same molecule, the TGI [26] was over 100 µM, the GI50 [27] was over 100 µM and the TGI [27] was over 100 µM. It also gave a GI50 [28] of over 100 µM, a TGI [28] of over 100 µM and a GI50 [29] of over 100 µM. It also gave a TGI [29] of over 100 µM, a GI50 [30] of over 100 µM and a TGI [30] of over 100 µM. The GI50 [31] was over 100 µM, the TGI [31] was over 100 µM and the GI50 [32] was over 100 µM. The TGI [32] was over 100 µM, the GI50 [33] was over 100 µM and the TGI [33] was over 100 µM. It also gave a GI50 [34] of over 100 µM, a TGI [34] of over 100 µM and a GI50 [35] of over 100 µM. It also gave a TGI [35] of over 100 µM, a GI50 [36] of over 100 µM and a TGI [36] of over 100 µM. It also gave a GI50 [37] of over 100 µM, a TGI [37] of over 100 µM and a GI50 [38] of over 100 µM. The TGI [38] was over 100 µM, the GI50 [39] was over 100 µM and the TGI [39] was over 100 µM. For the same molecule, the GI50 [40] was over 100 µM, the TGI [40] was over 100 µM and the GI50 [41] was over 100 µM. For the same molecule, the TGI [41] was over 100 µM, the GI50 [42] was over 100 µM and the TGI [42] was over 100 µM. It also gave a GI50 [43] of over 100 µM, a TGI [43] of over 100 µM and a GI50 [44] of over 100 µM. It also gave a TGI [44] of over 100 µM, a GI50 [45] of over 100 µM and a TGI [45] of over 100 µM. It also gave a GI50 [46] of over 100 µM, a TGI [46] of over 100 µM and a GI50 [47] of over 100 µM. It also gave a TGI [47] of over 100 µM, a GI50 [48] of over 100 µM and a TGI [48] of over 100 µM. It also gave a GI50 [49] of over 100 µM, a TGI [49] of over 100 µM and a GI50 [50] of over 100 µM. It also gave a TGI [50] of over 100 µM, a GI50 [51] of over 100 µM and a TGI [51] of over 100 µM. For the same molecule, the GI50 [52] was over 100 µM, the TGI [52] was over 100 µM and the GI50 [53] was over 100 µM. For the same molecule, the TGI [53] was over 100 µM, the GI50 [54] was over 100 µM and the TGI [54] was over 100 µM. It also gave a GI50 [55] of over 100 µM, a TGI [55] of over 100 µM and a GI50 [56] of over 100 µM. For the same molecule, the TGI [56] was over 100 µM, the GI50 [57] was over 100 µM and the TGI [57] was over 100 µM.
